# Experimental data as given in US11384055B2 (BIOMARIN PHARMACEUTICAL INC., priority 2017, dated 2022).
# Molecular target: T1, Human GO (Homo sapiens, UniProt Q9UJM8)
# T1 construct: purchased Novus Biologicals NBP1-72412
# T1 sequence (Q9UJM8 1-370): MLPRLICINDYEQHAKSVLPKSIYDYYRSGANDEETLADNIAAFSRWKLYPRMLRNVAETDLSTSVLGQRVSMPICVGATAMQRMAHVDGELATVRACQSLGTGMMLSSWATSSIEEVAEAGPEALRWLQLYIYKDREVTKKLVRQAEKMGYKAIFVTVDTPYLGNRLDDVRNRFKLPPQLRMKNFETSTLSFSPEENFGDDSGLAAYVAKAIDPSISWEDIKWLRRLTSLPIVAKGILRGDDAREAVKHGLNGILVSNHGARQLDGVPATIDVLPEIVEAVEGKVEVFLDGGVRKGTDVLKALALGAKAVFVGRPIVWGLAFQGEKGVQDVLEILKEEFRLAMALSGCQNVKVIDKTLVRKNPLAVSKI
# Assay: GO enzymatic assay (coupled fluorescence/HRP assay, glycolate substrate)
# Type: biochemical
# Details: not given
# Method in brief: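 Coupled HRP/fluorescence read-out of glycolate oxidation by human GO in 50 mM potassium phosphate buffer (pH 7). Inhibitors added across a concentration range.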
row,Structure (SMILES),IC50 [nM]
1,"CC(C)(C)C(=O)OCn1nnc(Oc2ccc(Cl)c(Cl)c2)c1C(=O)O [Compound 102, 4-(3,4-dichlorophenoxy)-1-((pivaloyloxy)methyl)-1H-1,2,3-triazole-5-carboxylic acid]",100 to 1000
2,"CC(C)C(=O)OCn1nnc(Oc2ccc(Cl)c(Cl)c2)c1C(=O)O [Compound 103, 4-(3,4-dichlorophenoxy)-1-((isobutyryloxy)methyl)-1H-1,2,3-triazole-5-carboxylic acid]",100 to 1000
3,"CC(=O)OCn1nnc(Oc2ccc(Cl)c(Cl)c2)c1C(=O)O [Compound 104, 1-(acetoxymethyl)-4-(3,4-dichlorophenoxy)-1H-1,2,3-triazole-5-carboxylic acid]",100 to 1000
4,"O=C(O)c1[nH]nnc1-c1ccc(-c2ccc(Cl)cc2)cc1 [Compound 126, 2,2,2-trifluoroacetate]",< 100
5,O=C(O)c1[nH]nnc1-c1ccc(-c2ccc(OC(F)(F)F)cc2)cc1 [Compound 128],100 to 1000
6,"O=C(O)c1[nH]nnc1-c1ccc(-c2ccc(Cl)cc2)c(Cl)c1 [Compound 130, 2,2,2-trifluoroacetate]",< 100
7,"O=C(O)c1[nH]nnc1-c1cccc(OC(F)(F)F)c1 [Compound 135, 4-(3-(trifluoromethoxy)phenyl)-1H-1,2,3-triazole-5-carboxylic acid]",< 100

# Next, values leading:
row,IC50 [nM],Structure (SMILES)
1,< 100,"O=C(O)c1[nH]nnc1-c1ccc(Cl)c(Cl)c1 [Compound 125, 4-(3,4-dichlorophenyl)-1H-1,2,3-triazole-5-carboxylic acid]"
2,< 100,"O=C(O)c1[nH]nnc1-c1ccc2cc(Cl)ccc2c1 [Compound 133, 4-(6-chloronaphthalen-2-yl)-1H-1,2,3-triazole-5-carboxylic acid]"

# Same assay, conditions: Table 1; read-out: Range (range of IC50 values calculated from the enzymatic assays)
row,Structure (SMILES),IC50 [nM]
1,"CC(=O)OCOC(=O)c1[nH]nnc1Oc1ccc2cc(Br)ccc2c1 [Compound 105, acetoxymethyl 4-((6-bromonaphthalen-2-yl)oxy)-1H-1,2,3-triazole-5-carboxylate]",1000 to 10000
2,"CC(=O)OCOC(=O)c1[nH]nnc1Oc1ccc(Cl)c(Cl)c1 [Compound 109, acetoxymethyl 4-(3,4-dichlorophenoxy)-1H-1,2,3-triazole-5-carboxylate]",< 100
3,"O=C(O)c1[nH]nnc1Oc1ccc2cccnc2c1 [Compound 113, 4-(quinolin-7-yloxy)-1H-1,2,3-triazole-5-carboxylic acid 2,2,2-trifluoroacetate]",< 100
4,"O=C(O)c1[nH]nnc1Oc1cccc(OC(F)(F)F)c1 [Compound 114, 4-(3-(trifluoromethoxy)phenoxy)-1H-1,2,3-triazole-5-carboxylic acid]",< 100
5,"O=C(O)c1[nH]nnc1Oc1ccc(-c2ccc(OC(F)(F)F)cc2)c(Cl)c1 [Compound 119, 4-((2-chloro-4′-(trifluoromethoxy)-[1,1′-biphenyl]-4-yl)oxy)-1H-1,2,3-triazole-5-carboxylic acid]",< 100
6,"O=C(O)c1[nH]nnc1Oc1ccc(-c2ccc3ncccc3c2)cc1 [Compound 122, 5-(4-(quinolin-6-yl)phenoxy)-1H-1,2,3-triazole-4-carboxylic acid]",< 100
7,"O=C(O)c1[nH]nnc1-c1ccc(Oc2ccc(Cl)cc2)cc1 [Compound 127, 4-(4-(4-chlorophenoxy)phenyl)-1H-1,2,3-triazole-5-carboxylic acid]",< 100
8,"O=C(O)c1[nH]nnc1-c1ccc2cc(Cl)ccc2n1 [Compound 132, 4-(6-chloroquinolin-2-yl)-1H-1,2,3-triazole-5-carboxylic acid 2,2,2-trifluoroacetate]",< 100
9,"O=C(O)c1[nH]nnc1-c1nccc2ccc(Cl)cc12 [Compound 134, 4-(7-chloroisoquinolin-1-yl)-1H-1,2,3-triazole-5-carboxylic acid]",> 10000
10,"O=C(O)c1[nH]nnc1-c1ccc(OC(F)(F)F)cc1 [Compound 136, 4-(4-(trifluoromethoxy)phenyl)-1H-1,2,3-triazole-5-carboxylic acid]",100 to 1000
11,"O=C(O)c1[nH]nnc1-c1ccc(OCC2CCCC2)cc1 [Compound 137, 4-(4-(cyclopentylmethoxy)phenyl)-1H-1,2,3-triazole-5-carboxylic acid]",100 to 1000
12,"O=C(O)c1[nH]nnc1-c1ccc(-c2ccc(OC(F)(F)F)cc2)c(Cl)c1 [Compound 139, 4-(2-chloro-4′-(trifluoromethoxy)-[1,1′-biphenyl]-4-yl)-1H-1,2,3-triazole-5-carboxylic acid 2,2,2-trifluoroacetate]",100 to 1000

# Results, then the compound that gave them:
row,IC50 [nM],Structure (SMILES)
1,< 100,"O=C(O)c1[nH]nnc1Oc1ccc2cc(Cl)ccc2c1 [Compound 106, 4-((6-chloronaphthalen-2-yl)oxy)-1H-1,2,3-triazole-5-carboxylic acid 2,2,2-trifluoroacetate]"
2,1000 to 10000,"CC(C)(C)C(=O)OCOC(=O)c1[nH]nnc1Oc1ccc(Cl)c(Cl)c1 [Compound 107, (pivaloyloxy)methyl 4-(3,4-dichlorophenoxy)-1H-1,2,3-triazole-5-carboxylate]"
3,100 to 1000,"CC(C)C(=O)OCOC(=O)c1[nH]nnc1Oc1ccc(Cl)c(Cl)c1 [Compound 108, (isobutyryloxy)methyl 4-(3,4-dichlorophenoxy)-1H-1,2,3-triazole-5-carboxylate]"
4,< 100,"O=C(O)c1[nH]nnc1OC1CCc2cc(Cl)c(Cl)cc2C1 (stereo not drawn) [Compound 111, 4-((6,7-dichloro-1,2,3,4-tetrahydronaphthalen-2-yl)oxy)-1H-1,2,3-triazole-5-carboxylic acid 2,2,2-trifluoroacetate]"
5,> 10000,"O=C(OC1CC1)c1[nH]nnc1Oc1ccc(Cl)c(Cl)c1 [Compound 112, cyclopropyl 4-(3,4-dichlorophenoxy)-1H-1,2,3-triazole-5-carboxylate]"
6,100 to 1000,"O=C(O)c1[nH]nnc1Oc1cnc2ccccc2c1 [Compound 115, 4-(quinolin-3-yloxy)-1H-1,2,3-triazole-5-carboxylic acid 2,2,2-trifluoroacetate]"
7,> 10000,"O=C(OC1CC1)c1[nH]nnc1Oc1ccc2c(c1)CCCC2 [Compound 116, cyclopropyl 4-((5,6,7,8-tetrahydronaphthalen-2-yl)oxy)-1H-1,2,3-triazole-5-carboxylate]"
8,< 100,"O=C(O)c1[nH]nnc1OC1CCc2ccccc2C1 (stereo not drawn) [Compound 117, 4-((1,2,3,4-tetrahydronaphthalen-2-yl)oxy)-1H-1,2,3-triazole-5-carboxylic acid 2,2,2-trifluoroacetate]"
9,< 100,"O=C(O)c1[nH]nnc1Oc1ccc2ccncc2c1 [Compound 118, 4-(isoquinolin-7-yloxy)-1H-1,2,3-triazole-5-carboxylic acid 2,2,2-trifluoroacetate]"
10,100 to 1000,"O=C(O)c1[nH]nnc1Oc1ccc2ncccc2c1 [Compound 120, 4-(quinolin-6-yloxy)-1H-1,2,3-triazole-5-carboxylic acid 2,2,2-trifluoroacetate]"
11,100 to 1000,"O=C(O)c1[nH]nnc1Oc1ccc2cnccc2c1 [Compound 121, 4-(isoquinolin-6-yloxy)-1H-1,2,3-triazole-5-carboxylic acid 2,2,2-trifluoroacetate]"
12,< 100,"O=C(O)c1[nH]nnc1-c1csc(-c2ccc(Cl)c(Cl)c2)n1 [Compound 124, 4-(2-(3,4-dichlorophenyl)thiazol-4-yl)-1H-1,2,3-triazole-5-carboxylic acid]"
13,< 100,"O=C(O)c1[nH]nnc1-c1cccc(-c2ccc(Cl)c(Cl)c2)c1 [Compound 129, 4-(3′,4′-dichloro-[1,1′-biphenyl]-3-yl)-1H-1,2,3-triazole-5-carboxylic acid]"
14,< 100,"O=C(O)c1[nH]nnc1-c1cccc(Oc2ccc(Cl)c(Cl)c2)c1 [Compound 131, 4-(3-(3,4-dichlorophenoxy)phenyl)-1H-1,2,3-triazole-5-carboxylic acid 2,2,2-trifluoroacetate]"
15,100 to 1000,"O=C(O)c1[nH]nnc1-c1ccc(OC2CCCC2)cc1 [Compound 138, 4-(4-(cyclopentyloxy)phenyl)-1H-1,2,3-triazole-5-carboxylic acid]"
16,< 100,"O=C(O)c1[nH]nnc1C1=Cc2ccccc2CC1 [Compound 140, 4-(3,4-dihydronaphthalen-2-yl)-1H-1,2,3-triazole-5-carboxylic acid 2,2,2-trifluoroacetate]"
17,100 to 1000,"O=C(O)c1[nH]nnc1C1CCc2ccccc2C1 (stereo not drawn) [Compound 141, 4-(1,2,3,4-tetrahydronaphthalen-2-yl)-1H-1,2,3-triazole-5-carboxylic acid 2,2,2-trifluoroacetate]"
18,> 10000,"CC(C)N1CCc2cc(-c3nn[nH]c3C(=O)O)ccc2C1 [Compound 143, 4-(2-isopropyl-1,2,3,4-tetrahydroisoquinolin-6-yl)-1H-1,2,3-triazole-5-carboxylic acid 2,2,2-trifluoroacetate]"
19,> 10000,"CC(C)N1CCc2ccc(-c3nn[nH]c3C(=O)O)cc2C1 [Compound 144, 4-(2-isopropyl-1,2,3,4-tetrahydroisoquinolin-7-yl)-1H-1,2,3-triazole-5-carboxylic acid 2,2,2-trifluoroacetate]"

# Same assay, conditions: Table 6; GO enzymatic assay; read-out: Range (range of IC50 values calculated from the enzymatic assays)
row,IC50 [nM],Structure (SMILES)
1,< 100,"O=C(O)c1[nH]nnc1O[C@@H]1CCc2cc(Cl)c(Cl)cc2C1 [Compound 111-1, (R)-4-((6,7-dichloro-1,2,3,4-tetrahydronaphthalen-2-yl)oxy)-1H-1,2,3-triazole-5-carboxylic acid]"
2,< 100,"O=C(O)c1[nH]nnc1O[C@H]1CCc2cc(Cl)c(Cl)cc2C1 [Compound 111-2, (S)-4-((6,7-dichloro-1,2,3,4-tetrahydronaphthalen-2-yl)oxy)-1H-1,2,3-triazole-5-carboxylic acid]"
